{"source": "ChEMBL document CHEMBL1641539", "about": "(Bioorg Med Chem Lett, 2011)", "key": {"[1]": {"target": "Epidermal growth factor receptor (Homo sapiens) (UniProt P00533)", "sequence (P00533 whole entry)": "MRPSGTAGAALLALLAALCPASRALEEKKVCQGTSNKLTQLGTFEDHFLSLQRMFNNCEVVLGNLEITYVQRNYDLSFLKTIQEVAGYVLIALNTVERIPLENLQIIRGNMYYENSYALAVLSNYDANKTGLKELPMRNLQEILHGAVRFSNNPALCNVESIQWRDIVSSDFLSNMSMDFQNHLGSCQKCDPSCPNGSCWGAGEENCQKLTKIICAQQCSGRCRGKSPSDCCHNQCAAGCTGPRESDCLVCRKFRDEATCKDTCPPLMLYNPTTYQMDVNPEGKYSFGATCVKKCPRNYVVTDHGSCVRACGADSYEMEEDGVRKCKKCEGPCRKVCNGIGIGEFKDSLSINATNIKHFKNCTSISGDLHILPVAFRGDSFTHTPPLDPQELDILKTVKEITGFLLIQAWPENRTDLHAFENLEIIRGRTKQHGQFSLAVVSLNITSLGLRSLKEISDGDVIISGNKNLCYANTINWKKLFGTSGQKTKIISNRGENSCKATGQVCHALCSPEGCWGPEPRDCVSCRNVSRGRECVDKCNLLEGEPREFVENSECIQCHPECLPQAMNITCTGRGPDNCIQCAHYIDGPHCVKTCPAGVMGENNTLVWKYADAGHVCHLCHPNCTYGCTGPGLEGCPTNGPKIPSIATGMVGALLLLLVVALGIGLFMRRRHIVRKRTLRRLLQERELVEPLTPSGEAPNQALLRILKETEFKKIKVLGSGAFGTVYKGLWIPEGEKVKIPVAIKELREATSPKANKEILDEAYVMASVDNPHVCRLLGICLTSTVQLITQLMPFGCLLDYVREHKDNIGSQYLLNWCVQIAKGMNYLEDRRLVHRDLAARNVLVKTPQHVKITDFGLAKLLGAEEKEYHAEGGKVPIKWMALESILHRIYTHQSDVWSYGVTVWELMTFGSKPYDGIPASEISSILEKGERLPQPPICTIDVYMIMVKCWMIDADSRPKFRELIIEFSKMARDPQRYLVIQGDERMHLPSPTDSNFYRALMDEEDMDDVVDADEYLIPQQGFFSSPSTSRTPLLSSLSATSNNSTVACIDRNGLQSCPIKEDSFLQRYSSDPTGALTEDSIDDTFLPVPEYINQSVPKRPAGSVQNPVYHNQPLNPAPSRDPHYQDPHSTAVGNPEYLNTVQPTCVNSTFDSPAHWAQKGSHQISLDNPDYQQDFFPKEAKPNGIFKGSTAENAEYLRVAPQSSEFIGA", "test": "Inhibition of human EGFR at 10 uM after 60 mins by TR-FRET assay", "conditions": "values are per cent of control"}, "[2]": {"target": "Tyrosine-protein kinase ITK/TSK (Homo sapiens) (UniProt Q08881)", "test": "Inhibition of human Itk at 10 uM after 60 mins by TR-FRET assay", "conditions": "values are per cent of control"}, "[3]": {"target": "Mitogen-activated protein kinase 8 (Homo sapiens, UniProt P45983)", "sequence (P45983 whole entry)": "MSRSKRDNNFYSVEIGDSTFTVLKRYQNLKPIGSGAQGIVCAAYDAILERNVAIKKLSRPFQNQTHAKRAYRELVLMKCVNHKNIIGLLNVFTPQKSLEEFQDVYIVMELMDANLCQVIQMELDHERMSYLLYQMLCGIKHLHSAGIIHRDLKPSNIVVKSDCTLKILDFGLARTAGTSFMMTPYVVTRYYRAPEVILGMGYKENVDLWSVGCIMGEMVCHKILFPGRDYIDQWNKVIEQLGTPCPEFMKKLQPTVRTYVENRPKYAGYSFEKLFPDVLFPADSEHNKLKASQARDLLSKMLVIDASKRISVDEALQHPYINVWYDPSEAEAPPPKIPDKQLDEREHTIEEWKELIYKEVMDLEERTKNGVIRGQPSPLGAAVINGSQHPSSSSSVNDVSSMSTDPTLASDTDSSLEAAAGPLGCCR", "test": "Inhibition of human JNK1alpha1 at 10 uM after 60 mins by TR-FRET assay", "conditions": "values are per cent of control"}, "[4]": {"target": "Serine/threonine-protein kinase 24 (Homo sapiens) (UniProt Q9Y6E0)", "sequence (Q9Y6E0 whole entry, looked up)": "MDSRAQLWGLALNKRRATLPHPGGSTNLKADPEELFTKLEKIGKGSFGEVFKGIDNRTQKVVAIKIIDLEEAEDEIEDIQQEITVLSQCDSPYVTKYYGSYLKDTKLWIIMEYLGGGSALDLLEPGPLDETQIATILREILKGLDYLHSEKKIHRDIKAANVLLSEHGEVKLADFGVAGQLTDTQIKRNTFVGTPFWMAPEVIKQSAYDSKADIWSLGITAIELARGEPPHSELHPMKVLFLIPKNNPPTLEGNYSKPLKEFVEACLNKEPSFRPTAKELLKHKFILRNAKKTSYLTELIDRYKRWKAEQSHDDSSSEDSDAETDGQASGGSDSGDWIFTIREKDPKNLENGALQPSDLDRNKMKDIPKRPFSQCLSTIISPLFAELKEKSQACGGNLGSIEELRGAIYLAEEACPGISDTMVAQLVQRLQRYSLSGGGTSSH", "test": "Inhibition of human MST3 at 10 uM after 60 mins by TR-FRET assay", "conditions": "values are per cent of control"}, "[5]": {"target": "Serine/threonine-protein kinase Sgk1 (Homo sapiens) (UniProt O00141)", "test": "Inhibition of human SGK at 10 uM after 60 mins by TR-FRET assay; values are per cent of control"}, "[6]": {"target": "Tyrosine-protein kinase TXK (Homo sapiens) (UniProt P42681)", "test": "Inhibition of human Txk at 10 uM after 60 mins by TR-FRET assay; values are per cent of control"}, "[7]": {"target": "Mitogen-activated protein kinase 10 (Homo sapiens, UniProt P53779)", "test": "Inhibition of human JNK3 at 10 uM after 60 mins by TR-FRET assay; values are per cent of control"}, "[8]": {"target": "Dual specificity mitogen-activated protein kinase kinase 6 (Homo sapiens) (UniProt P52564)", "test": "Inhibition of human MKK6 at 10 uM after 60 mins by TR-FRET assay; values are per cent of control"}, "[9]": {"target": "Serine/threonine-protein kinase WNK3 (Homo sapiens) (UniProt Q9BYP7)", "sequence (Q9BYP7 whole entry)": "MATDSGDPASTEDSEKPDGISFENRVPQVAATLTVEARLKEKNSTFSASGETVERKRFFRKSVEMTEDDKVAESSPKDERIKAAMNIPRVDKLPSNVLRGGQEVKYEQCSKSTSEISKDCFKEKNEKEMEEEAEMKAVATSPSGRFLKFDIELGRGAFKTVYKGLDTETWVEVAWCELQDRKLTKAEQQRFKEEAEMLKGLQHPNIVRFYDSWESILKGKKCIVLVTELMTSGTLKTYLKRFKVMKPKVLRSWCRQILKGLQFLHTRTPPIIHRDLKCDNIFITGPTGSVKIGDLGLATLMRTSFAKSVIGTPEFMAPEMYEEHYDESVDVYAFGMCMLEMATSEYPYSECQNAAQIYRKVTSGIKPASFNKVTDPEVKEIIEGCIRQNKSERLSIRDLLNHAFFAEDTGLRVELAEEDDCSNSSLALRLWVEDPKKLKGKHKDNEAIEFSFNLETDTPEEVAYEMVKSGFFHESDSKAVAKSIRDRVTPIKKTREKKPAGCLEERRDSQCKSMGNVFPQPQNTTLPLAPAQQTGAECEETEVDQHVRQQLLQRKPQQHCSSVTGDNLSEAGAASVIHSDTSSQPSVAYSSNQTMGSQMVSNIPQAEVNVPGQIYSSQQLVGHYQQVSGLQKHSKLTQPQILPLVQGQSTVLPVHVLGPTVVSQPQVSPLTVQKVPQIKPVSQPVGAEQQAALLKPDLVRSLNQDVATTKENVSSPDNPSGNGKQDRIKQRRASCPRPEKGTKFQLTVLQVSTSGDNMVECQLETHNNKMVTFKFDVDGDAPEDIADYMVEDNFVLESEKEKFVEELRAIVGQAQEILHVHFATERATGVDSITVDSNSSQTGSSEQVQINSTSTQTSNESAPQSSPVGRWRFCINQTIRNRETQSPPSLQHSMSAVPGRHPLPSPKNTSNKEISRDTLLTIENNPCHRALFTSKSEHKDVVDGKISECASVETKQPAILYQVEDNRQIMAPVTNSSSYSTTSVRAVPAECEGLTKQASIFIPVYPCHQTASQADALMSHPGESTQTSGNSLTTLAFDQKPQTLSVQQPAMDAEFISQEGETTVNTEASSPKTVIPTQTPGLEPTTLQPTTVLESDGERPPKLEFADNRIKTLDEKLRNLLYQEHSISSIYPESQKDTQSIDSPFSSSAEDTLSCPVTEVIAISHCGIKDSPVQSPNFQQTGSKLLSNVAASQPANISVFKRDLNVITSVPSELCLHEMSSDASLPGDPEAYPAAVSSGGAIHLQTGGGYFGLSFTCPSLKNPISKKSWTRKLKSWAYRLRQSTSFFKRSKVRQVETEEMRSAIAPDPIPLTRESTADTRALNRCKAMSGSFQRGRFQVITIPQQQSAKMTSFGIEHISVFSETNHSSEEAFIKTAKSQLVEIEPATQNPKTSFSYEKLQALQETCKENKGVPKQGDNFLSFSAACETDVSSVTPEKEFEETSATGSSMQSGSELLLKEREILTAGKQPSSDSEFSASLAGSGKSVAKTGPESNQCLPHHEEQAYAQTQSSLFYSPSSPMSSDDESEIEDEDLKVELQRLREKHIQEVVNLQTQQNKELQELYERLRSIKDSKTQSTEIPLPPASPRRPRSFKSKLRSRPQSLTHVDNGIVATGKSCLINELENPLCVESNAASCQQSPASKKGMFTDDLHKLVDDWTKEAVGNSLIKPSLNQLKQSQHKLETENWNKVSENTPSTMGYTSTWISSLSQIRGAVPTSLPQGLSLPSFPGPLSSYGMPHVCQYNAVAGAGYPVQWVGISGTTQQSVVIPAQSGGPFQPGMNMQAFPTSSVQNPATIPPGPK", "test": "Inhibition of human WNK3 at 10 uM after 60 mins by TR-FRET assay; values are per cent of control"}, "[10]": {"target": "Serine/threonine-protein kinase PLK1 (Homo sapiens) (UniProt P53350)", "test": "Inhibition of human Plk1 at 10 uM after 60 mins by TR-FRET assay; values are per cent of control"}, "[11]": {"target": "Ephrin type-A receptor 3 (Homo sapiens) (UniProt P29320)", "test": "Inhibition of human EphA3 at 10 uM after 60 mins by TR-FRET assay; values are per cent of control"}, "[12]": {"target": "Fibroblast growth factor receptor 1 (Homo sapiens) (UniProt P11362)", "test": "Inhibition of human FGFR1 at 10 uM after 60 mins by TR-FRET assay; values are per cent of control"}, "[13]": {"target": "Fibroblast growth factor receptor 2 (Homo sapiens) (UniProt P21802)", "test": "Inhibition of human FGFR2 at 10 uM after 60 mins by TR-FRET assay; values are per cent of control"}, "[14]": {"target": "LIM domain kinase 1 (Homo sapiens) (UniProt P53667)", "test": "Inhibition of human LIMK1 at 10 uM after 60 mins by TR-FRET assay; values are per cent of control"}, "[15]": {"target": "SRSF protein kinase 3 (Homo sapiens) (UniProt Q9UPE1)", "test": "Inhibition of human MSSK1 at 10 uM after 60 mins by TR-FRET assay; values are per cent of control"}, "[16]": {"target": "Testis-specific serine/threonine-protein kinase 1 (Homo sapiens) (UniProt Q9BXA7)", "sequence (Q9BXA7 whole entry)": "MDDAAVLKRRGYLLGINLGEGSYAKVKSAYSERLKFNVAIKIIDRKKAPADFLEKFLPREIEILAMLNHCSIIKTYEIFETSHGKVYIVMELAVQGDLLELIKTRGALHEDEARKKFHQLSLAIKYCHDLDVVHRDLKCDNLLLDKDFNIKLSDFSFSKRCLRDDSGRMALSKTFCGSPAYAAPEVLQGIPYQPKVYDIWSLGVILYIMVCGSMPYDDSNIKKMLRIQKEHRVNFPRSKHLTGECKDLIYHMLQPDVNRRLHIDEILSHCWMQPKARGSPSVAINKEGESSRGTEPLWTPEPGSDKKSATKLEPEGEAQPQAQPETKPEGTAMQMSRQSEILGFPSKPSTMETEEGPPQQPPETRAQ", "test": "Inhibition of human TSSK1 at 10 uM after 60 mins by TR-FRET assay; values are per cent of control"}, "[17]": {"target": "Serine/threonine-protein kinase BRSK2 (Homo sapiens) (UniProt Q8IWQ3)", "test": "Inhibition of human BrSK2 at 10 uM after 60 mins by TR-FRET assay; values are per cent of control"}, "[18]": {"target": "RAF proto-oncogene serine/threonine-protein kinase (Homo sapiens) (UniProt P04049)", "test": "Inhibition of human c-RAF at 10 uM after 60 mins by TR-FRET assay; values are per cent of control"}, "[19]": {"target": "Serine/threonine-protein kinase 17A (Homo sapiens) (UniProt Q9UEE5)", "test": "Inhibition of human DRAK1 at 10 uM after 60 mins by TR-FRET assay; values are per cent of control"}, "[20]": {"target": "Serine/threonine-protein kinase pim-3 (Homo sapiens) (UniProt Q86V86)", "test": "Inhibition of human Pim-3 at 10 uM after 60 mins by TR-FRET assay; values are per cent of control"}, "[21]": {"target": "Cyclin-dependent kinase 5/CDK5 activator 1 (Homo sapiens) (UniProt Q00535+Q15078)", "test": "Inhibition of human CDK5/p25 at 10 uM after 60 mins by TR-FRET assay; values are per cent of control"}, "[22]": {"target": "Protein kinase C theta type (Homo sapiens) (UniProt Q04759)", "test": "Inhibition of human PKCtheta at 10 uM after 60 mins by TR-FRET assay; values are per cent of control"}, "[23]": {"target": "Glycogen synthase kinase-3 alpha (Homo sapiens) (UniProt P49840)", "test": "Inhibition of human GSK3alpha at 10 uM after 60 mins by TR-FRET assay; values are per cent of control"}, "[24]": {"target": "Calcium/calmodulin-dependent protein kinase type II subunit beta (Homo sapiens) (UniProt Q13554)", "test": "Inhibition of human CaMK2beta at 10 uM after 60 mins by TR-FRET assay; values are per cent of control"}, "[25]": {"target": "Cyclin-dependent kinase 2/cyclin E (Homo sapiens) (UniProt P24864+P24941+O96020)", "test": "Inhibition of human CDK2/cyclinE at 10 uM after 60 mins by TR-FRET assay; values are per cent of control"}, "[26]": {"target": "CDK3/cyclin E (Homo sapiens) (UniProt P24864+O96020+Q00526)", "test": "Inhibition of human CDK3/cyclinE at 10 uM after 60 mins by TR-FRET assay; values are per cent of control"}, "[27]": {"system": "Proto-oncogene tyrosine-protein kinase receptor Ret (Homo sapiens), P07949 [V804L]", "test": "Inhibition of human Ret V804L mutant at 10 uM after 60 mins by TR-FRET assay; values are per cent of control"}, "[28]": {"system": "Serine/threonine-protein kinase Chk2 (Homo sapiens), O96017 [R145W]", "sequence (O96017 whole entry R145W)": "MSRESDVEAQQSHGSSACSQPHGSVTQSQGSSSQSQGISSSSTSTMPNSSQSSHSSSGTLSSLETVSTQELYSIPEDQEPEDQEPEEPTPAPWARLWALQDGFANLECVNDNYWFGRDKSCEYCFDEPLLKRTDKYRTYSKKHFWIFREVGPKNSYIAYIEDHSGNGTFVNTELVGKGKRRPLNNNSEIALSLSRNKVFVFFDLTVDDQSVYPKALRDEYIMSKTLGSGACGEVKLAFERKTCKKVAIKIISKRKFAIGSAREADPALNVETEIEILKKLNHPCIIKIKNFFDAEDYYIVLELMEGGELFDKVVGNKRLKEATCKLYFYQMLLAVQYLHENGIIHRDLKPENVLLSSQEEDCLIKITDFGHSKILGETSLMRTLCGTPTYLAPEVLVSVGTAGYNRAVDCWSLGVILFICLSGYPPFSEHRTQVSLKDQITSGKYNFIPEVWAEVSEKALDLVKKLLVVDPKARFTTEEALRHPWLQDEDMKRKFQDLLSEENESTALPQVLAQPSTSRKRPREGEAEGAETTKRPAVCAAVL", "test": "Inhibition of human CHK2 R145W mutant at 10 uM after 60 mins by TR-FRET assay; values are per cent of control"}}, "data": [{"smiles": "S=c1[nH]nc(-c2ccncc2)n1-c1ccc2ccccc2c1", "values": [{"measurement": "residual activity", "setting": "[1]", "result": 90, "unit": "%"}, {"measurement": "residual activity", "setting": "[2]", "result": 103, "unit": "%"}, {"measurement": "residual activity", "setting": "[3]", "result": 110, "unit": "%"}, {"measurement": "residual activity", "setting": "[4]", "result": 111, "unit": "%"}, {"measurement": "residual activity", "setting": "[5]", "result": 109, "unit": "%"}, {"measurement": "residual activity", "setting": "[6]", "result": 93, "unit": "%"}, {"measurement": "residual activity", "setting": "[7]", "result": 4, "unit": "%"}, {"measurement": "residual activity", "setting": "[8]", "result": 85, "unit": "%"}, {"measurement": "residual activity", "setting": "[9]", "result": 100, "unit": "%"}, {"measurement": "residual activity", "setting": "[10]", "result": 90, "unit": "%"}, {"measurement": "residual activity", "setting": "[11]", "result": 90, "unit": "%"}, {"measurement": "residual activity", "setting": "[12]", "result": 98, "unit": "%"}, {"measurement": "residual activity", "setting": "[13]", "result": 92, "unit": "%"}, {"measurement": "residual activity", "setting": "[14]", "result": 101, "unit": "%"}, {"measurement": "residual activity", "setting": "[15]", "result": 121, "unit": "%"}, {"measurement": "residual activity", "setting": "[16]", "result": 111, "unit": "%"}, {"measurement": "residual activity", "setting": "[17]", "result": 103, "unit": "%"}, {"measurement": "residual activity", "setting": "[18]", "result": 35, "unit": "%"}, {"measurement": "residual activity", "setting": "[19]", "result": 96, "unit": "%"}, {"measurement": "residual activity", "setting": "[20]", "result": 99, "unit": "%"}, {"measurement": "residual activity", "setting": "[21]", "result": 112, "unit": "%"}, {"measurement": "residual activity", "setting": "[22]", "result": 114, "unit": "%"}, {"measurement": "residual activity", "setting": "[23]", "result": 85, "unit": "%"}, {"measurement": "residual activity", "setting": "[24]", "result": 113, "unit": "%"}, {"measurement": "residual activity", "setting": "[25]", "result": 108, "unit": "%"}, {"measurement": "residual activity", "setting": "[26]", "result": 94, "unit": "%"}, {"measurement": "residual activity", "setting": "[27]", "result": 109, "unit": "%"}, {"measurement": "residual activity", "setting": "[28]", "result": 108, "unit": "%"}]}]}
